Assay: xn = mol fraction of the nth substance listed
Details: 101 kPa, x1 = 1

CC1COC(=O)O1 (stereo unspecified) + CCCC[N+]1(C)CCCC1.O=S(=O)([N-]S(=O)(=O)C(F)(F)F)C(F)(F)F
Details	electrical conductivity [S/m]	viscosity [mPa·s]
263.15 K	0.001	–
268.15 K	0.001	–
273.15 K	0.001	–
278.15 K	0.001	–
283.15 K	0.001	–
288.15 K	0.001	–
298.15 K	0.002	2.52
308.15 K	0.002	2.14
318.15 K	–	1.85
